Reference: patent US20070155739A1, “Substituted bis-amide metalloprotease inhibitors” (ALANTOS PHARMACEUTICALS, INC., priority 2005, published 2007)
Like-named read-outs stand apart in the source and are kept apart here.

What was measured:
[1] = Microsomal stability, rat microsomes; assay type: in vitro ADME; settings: rat microsomes 0.3 mg/mL, 1 μM compound, 60 min at 37° C.
Method: (§1) Assay for Microsomal Stability
(§2) For microsomal stability testing 1 μM conzentration of compound and human or rat microsomes (0.3 mg/mL, BD bioscience) are used in the in vitro assay. To ensure proper energy supply for microsomal degradation of compound, an energy regenerating system comprised of NADP, glucose 6-phosphate and glucose 6-phosphate dehydrogenase is added to samples and suspension is incubated for 60 min at 37° C. in rotary shaker. After incubation time, acetonitrile containing internal standard is added to stop metabolization by precipitation of proteins. After centrifugation step, supernatant is analysed by LC-MS/MS and percentage of compound remaining is analysed.

MMP-13 = MMP-13 (Homo sapiens, UniProt P45452); test: Assay for determining MMP-13 inhibition (fluorogenic substrate); assay type: biochemical
Method: The MMP-13 inhibiting activity of the bis-amide metalloprotease inhibiting compounds of the present invention may be measured using any suitable assay known in the art. A standard in vitro assay for MMP-13 inhibiting activity is described in Example 999 and a description of the microsomal stability assay is described in Example 999a.
Assay for Determining MMP-13 Inhibition
The typical assay for MMP-13 activity is carried out in assay buffer comprised of 50 mM Tris, pH 7.5, 150 mM NaCl, 5 mM CaCl2 and 0.05% Brij-35. Different concentrations of tested compounds are prepared in assay buffer in 50 μL aliquots. 10 μL of 40 nM stock solution of MMP-13 enzyme is added to the compound solution. The mixture of enzyme and compound in assay buffer is thoroughly mixed and incubated for 20 minutes at room temperature. Upon the completion of incubation, the assay is started by addition of 40 μL of 12.5 μM stock solution of MMP-13 fluorogenic substrate (Calbiochem Cat. No. 444235). The time-dependent increase in fluorescence is measured at the 325 nm excitation and 393 nm emission by automatic plate multireader. The IC50 values are calculated from the initial reaction rates. Selectivity assays were run in a similar manner using MMP-1, MMP-3, MMP-8, MMP-12, MMP-14 and TACE.

[2] = Microsomal stability, human microsomes; assay type: in vitro ADME; settings: human microsomes 0.3 mg/mL, 1 μM compound, 60 min at 37° C.
Method: as §1, §2

[3] = Cell viability, comparison; assay type: cell-based; settings: compared with unsubstituted Example 1040d
[4] = Microsomal stability, comparison in text (species not stated); assay type: in vitro ADME; settings: compared with unsubstituted Example 1040d
Method: as §2

[5] = Table 2, methyl substitution at R^2 or R^3, read-out: IC50 (nM), Comparison of MMP-13 Activity Versus Location of Substituent (R^2 or R^3)
[6] = Table 1, read-out: IC50 (nM), Summary of MMP-13 Activity for Compounds of Formula I

| Rat (%), microsomal stability, percentage of compound remaining [1] | Human (%), microsomal stability, percentage of compound remaining [2] | IC50 (MMP-13; [6]) | Structure (SMILES) | also measured |
| --- | --- | --- | --- | --- |
| 70% | 93% | – | COc1cccc(CNC(=O)c2cc(C(=O)N[C@H](C)c3ccc(-c4nnn[nH]4)cc3)ncn2)c1 (stereo in doubt) [Example 1006] | IC50 (MMP-13; [5]): > 100 nM |
| – | – | < 200 nM | Cc1cc(CNC(=O)c2cc(C(=O)N[C@@H](C)c3ccc(C(=O)N4CCOCC4)cc3)ncn2)ccc1F [Example 1028e] | – |
| – | – | < 10 nM | Cc1cc(CNC(=O)c2cc(C(=O)N[C@@H](C)c3ccc(-c4nnn[nH]4)cc3)ncn2)ccc1F [Example 1007] | – |
| 90% | 100% | – | C[C@H](NC(=O)c1cc(C(=O)NCc2ccc(F)cc2)ncn1)c1ccc(-c2nnn[nH]2)cc1 [Example 1007c] | – |
| – | – | – | COc1cccc(CNC(=O)c2cc(C(=O)N[C@@H](C)c3ccc(-c4nnn[nH]4)cc3)ncn2)c1 [Example 1005] | IC50 (MMP-13; [5]): < 10 nM; cell viability, in words [3]: improvements; microsomal stability, in words [4]: improvements |
| 58% | 98% | – | O=C(NCc1ccc(F)cc1)c1cc(C(=O)NCc2ccc(-c3nnn[nH]3)cc2)ncn1 [Example 1040e] | – |
| – | – | < 200 nM | Cc1cc(CNC(=O)c2cc(C(=O)N[C@@H](C)c3ccc(C(=O)O)cc3)ncn2)ccc1F [Example 1000] | – |
| – | – | – | C[C@@H](NC(=O)c1cc(C(=O)NCc2ccc(-c3nnn[nH]3)cc2)ncn1)c1ccccc1 [Example 1040a] | IC50 (MMP-13; [5]): > 100 nM |
| – | – | < 200 nM | Cc1cc(CNC(=O)c2cc(C(=O)N[C@@H](C)c3ccc(-c4noc(CCC(=O)O)n4)cc3)ncn2)ccc1F [Example 1021] | – |
| – | – | < 1000 nM | C[C@H](NC(=O)c1cc(C(=O)NCc2cccs2)ncn1)c1ccc(-c2nnn[nH]2)cc1 [Example 1007d] | – |
| – | – | < 200 nM | O=C(NCc1ccc(F)cc1)c1cc(C(=O)N[C@@H](CO)c2ccc(-c3nnn[nH]3)cc2)ncn1 [Example 1004] | – |
| – | – | < 200 nM | CCc1cc(CNC(=O)c2cc(C(=O)N[C@@H](C)c3ccc(-c4nnn[nH]4)cc3)ncn2)cs1 [Example 1007o] | – |
| 96% | 96% | – | C[C@H](NC(=O)c1cc(C(=O)NCc2ccc(-c3nnn[nH]3)cc2)ncn1)c1ccccc1 [Example 1040b] | IC50 (MMP-13; [5]): < 10 nM |
| 38% | 75% | – | COc1cccc(CNC(=O)c2cc(C(=O)NCc3ccc(-c4nnn[nH]4)cc3)ncn2)c1 [Example 1040d, pyrimidine-4,6-dicarboxylic acid 4-(3-methoxybenzylamide) 6-[4-(1H-tetrazol-5-yl)-benzylamide]] | – |
| – | – | < 10 nM | Cc1cc(CNC(=O)c2cc(C(=O)N[C@@H](C(N)=O)c3ccc(-c4nnn[nH]4)cc3)ncn2)ccc1F [Example 1002] | – |
